PubChem BioAssay (NCI)
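Each compound was tested at five concentrations against cells in 96-well plates for 48 hours. TGI is the concentration that stops growth completely.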

Tests used:
Assay in all cases: NCI anticancer screen, dose series, 48 h
786-0 renal = system: 786-0 renal
NCI-H460 lung = system: NCI-H460 lung
MCF7 breast = system: MCF7 breast
SF-539 CNS = system: SF-539 CNS
OVCAR-5 ovarian = system: OVCAR-5 ovarian
SK-MEL-28 melanoma = system: SK-MEL-28 melanoma
HCT-15 colon = system: HCT-15 colon
DU-145 prostate = system: DU-145 prostate
SF-295 CNS = system: SF-295 CNS
SR leukemia = system: SR leukemia
KM12 colon = system: KM12 colon
MALME-3M melanoma = system: MALME-3M melanoma
UO-31 renal = system: UO-31 renal
A498 renal = system: A498 renal
OVCAR-3 ovarian = system: OVCAR-3 ovarian
OVCAR-8 ovarian = system: OVCAR-8 ovarian
MDA-N = system: MDA-N
MDA-MB-231 breast = system: MDA-MB-231 breast
NCI/ADR-RES ovarian = system: NCI/ADR-RES ovarian
OVCAR-4 ovarian = system: OVCAR-4 ovarian
SN12C renal = system: SN12C renal
SNB-19 CNS = system: SNB-19 CNS
TK-10 renal = system: TK-10 renal
CCRF-CEM leukemia = system: CCRF-CEM leukemia
SNB-75 CNS = system: SNB-75 CNS
COLO 205 colon = system: COLO 205 colon
A549 NSCLC = system: A549 NSCLC
ACHN renal = system: ACHN renal
LOX IMVI melanoma = system: LOX IMVI melanoma
SK-MEL-5 melanoma = system: SK-MEL-5 melanoma
HCC-2998 colon = system: HCC-2998 colon
PC-3 prostate = system: PC-3 prostate
UACC-257 melanoma = system: UACC-257 melanoma
M14 melanoma = system: M14 melanoma
U251 CNS = system: U251 CNS
HOP-62 NSCLC = system: HOP-62 NSCLC
SW-620 colon = system: SW-620 colon
HL-60(TB) leukemia = system: HL-60(TB) leukemia
EKVX NSCLC = system: EKVX NSCLC
CAKI-1 renal = system: CAKI-1 renal
SF-268 CNS = system: SF-268 CNS
HCT-116 colon = system: HCT-116 colon
NCI-H522 lung = system: NCI-H522 lung
MOLT-4 leukemia = system: MOLT-4 leukemia
NCI-H23 lung = system: NCI-H23 lung
HS 578T breast = system: HS 578T breast
RPMI-8226 leukemia = system: RPMI-8226 leukemia
IGROV1 ovarian = system: IGROV1 ovarian
SK-MEL-2 melanoma = system: SK-MEL-2 melanoma
MDA-MB-435 = system: MDA-MB-435
HOP-92 NSCLC = system: HOP-92 NSCLC
T-47D breast = system: T-47D breast
UACC-62 melanoma = system: UACC-62 melanoma
HT29 colon = system: HT29 colon

Measured: TGI

CCOC(=O)C1(C(=O)OCC)C[C@]23OCCC(=O)[C@H]2[C@H]2C(=O)OC(C)(C)O[C@]23C1
> 100 µM: all assays above
